Measured values: ChEMBL document CHEMBL1142783, “Hydrophobicity in the design of P2/P2' tetrahydropyrimidinone HIV protease inhibitors” (Bioorg Med Chem Lett, 2005)

Biological target: Human immunodeficiency virus type 1 protease (Human immunodeficiency virus 1) (UniProt Q72874)
Assay: Concentration which reduced the concentration of HIV viral RNA by 90% from the level measured in an untreated infected culture
Type: functional

Structure (SMILES) | Log 1/IC90
O=C1N(c2ccccc2)[C@H](CCc2ccccc2)[C@@H](O)[C@@H](Cc2ccccc2)N1c1ccccc1 | 5.55
O=C1N(c2ccc(CO)cc2)[C@H](CCc2ccccc2)[C@@H](O)[C@@H](Cc2ccccc2)N1c1ccc(CO)cc1 | 5.44
O=C1N(c2cccc(CO)c2)[C@H](CCc2ccccc2)[C@@H](O)[C@@H](Cc2ccccc2)N1c1cccc(CO)c1 | 6.96
N#Cc1cccc(N2C(=O)N(c3cccc(C#N)c3)[C@H](Cc3ccccc3)[C@H](O)[C@H]2CCc2ccccc2)c1 | 5.8
Nc1ccc(N2C(=O)N(c3ccc(N)c(F)c3)[C@H](Cc3ccccc3)[C@H](O)[C@H]2CCc2ccccc2)cc1F | 6.27
NC(=O)c1cc(N2C(=O)N(c3ccc(F)c(C(N)=O)c3)[C@H](Cc3ccccc3)[C@H](O)[C@H]2CCc2ccccc2)ccc1F | 6.31
Nc1cc(N2C(=O)N(c3ccc(F)c(N)c3)[C@H](Cc3ccccc3)[C@H](O)[C@H]2CCc2ccccc2)ccc1F | 7.44

Other lines, results leading:

Log 1/IC90 | Structure (SMILES)
7.46 | NC(=O)c1cccc(N2C(=O)N(c3cccc(C(N)=O)c3)[C@H](Cc3ccccc3)[C@H](O)[C@H]2CCc2ccccc2)c1
6.48 | CNc1cccc(N2C(=O)N(c3cccc(NC)c3)[C@H](Cc3ccccc3)[C@H](O)[C@H]2CCc2ccccc2)c1
6.94 | O=C1N(c2cccc(O)c2)[C@H](CCc2ccccc2)[C@@H](O)[C@@H](Cc2ccccc2)N1c1cccc(O)c1
7.31 | N=C(NO)c1cccc(N2C(=O)N(c3cccc(/C(N)=C\O)c3)[C@H](Cc3ccccc3)[C@H](O)[C@H]2CCc2ccccc2)c1
6.44 | Nc1cccc(N2C(=O)N(c3cccc(N)c3)[C@H](Cc3ccccc3)[C@H](O)[C@H]2CCc2ccccc2)c1
